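Following 48 hours of exposure in 96-well plates, responses at five concentrations were used to interpolate endpoints linearly. GI50 is the concentration that inhibits growth by half.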 Calls of active or inactive are those of the source. Cut-off read from the data, not from the text of the source: active = GI50 up to about 1.1 µM and inactive = higher.
Assays:
Assay in all cases: NCI-60 cell line screen, 48 h
[1] = system: TK-10
[2] = system: U-251
[3] = system: M19-MEL
[4] = system: UACC-62
[5] = system: SK-MEL-2
[6] = system: SN12C
[7] = system: M14
[8] = system: SK-OV-3
[9] = system: HL-60
[10] = system: LXFL 529
[11] = system: OVCAR-8
[12] = system: HOP-18
[13] = system: SK-MEL-28
[14] = system: HCT-116
[15] = system: Malme-3M
[16] = system: A549
[17] = system: SNB-19
[18] = system: NCI-H522
[19] = system: OVCAR-3
[20] = system: OVCAR-4

Measured: GI50

O=C1NP23(OCCO2)Oc2ccccc2C3(C(F)(F)F)O1 (stereo not given)
inactive: [1] > 100 µM | [2] > 100 µM | [3] > 100 µM | [4] > 100 µM | [5] > 100 µM | [6] > 100 µM | [7] > 100 µM | [8] > 100 µM | [9] > 100 µM | [10] > 100 µM | [11] > 100 µM | [12] > 100 µM | [13] > 100 µM | [14] > 100 µM | [15] > 100 µM | [16] > 100 µM | [17] > 100 µM | [18] > 100 µM | [19] > 100 µM | [20] > 100 µM
